The text below walks through data of article PMC10611374, “Characterization of the Hemolytic Activity of Mastoparan Family Peptides from Wasp Venoms” (Toxins, 2023).

Where “and” joins values, the source holds several entries; their conditions need not be identical. Equal values may be shown once. Read-outs that look alike come from different tables or passages of the source. Ends that are not written are not given here.

Assay [1] concerns human red blood cells (HRBCs). The assay can be described thus: Hemolytic assay on human red blood cells. The assay is classed as cell-based. As to conditions: human red blood cells 5% (v/v) in PBS, 37 °C 1 h, OD 540 nm, 1% Triton X-100 = 100%; for HRBC Hemolysis (hemolysis rate at 320 μg/mL): peptide 320 μg/mL (highest dose), PBS = 0%, mean of three independent experiments; for EC50: peptide 10-320 μg/mL twofold dilutions, four-parameter logistic fit of mean of three independent experiments, '-' = hemolytic activity too low to calculate the EC50, read-out: HRBC EC50 (hemolytic activity). How it is done:
(§1) Fresh human red blood cells were obtained from healthy donors and collected in a sterile blood collecting vessel covered with sodium citrate (1:9) as the anticoagulating agent. Rat red blood cells were collected from the abdominal aorta in sterile blood-collecting vessels coated with sodium citrate (1:4) after the SD rats were anaesthetized with isoflurane. Then, the cells were washed three times with phosphate-buffered saline via centrifugation (1000× g, 4 °C, 5 min) and prepared in a sterile 96-well polypropylene plate to achieve a final concentration of 5% (v/v). Twofold dilutions of the peptides were prepared in PBS to 100 μL and mixed with an equal volume of HRBCs/RRBCs suspension to final peptide concentrations ranging from 10 to 320 μg/mL. After coincubation at 37 °C for 1 h, the plate was centrifuged (2000× g, 4 °C, 20 min), and 100 μL of supernatant was taken for optical density measurements at 540 nm using a microtiter plate reader (SpectraMax 190). The HRBCs/RRBCs were assayed with PBS (blank) or 1% Triton X-100 (positive control) to represent 0% and 100% hemolysis, respectively. The percent hemolysis was calculated according to the following equation: Hemolysis Rate (%) = 100% × (Amastoparans − Ablank)/(ATriton X-100 − Ablank). Three independent experiments were performed, and the mean hemolysis rate at each dose was used to calculate the EC50 in Sigmaplot software.
(§2) Statistical analysis was performed with GraphPad Prism software (version 5.0, San Diego, CA, USA). A two-tailed Student’s t-test was used to calculate the statistical probability in this study. Differences in the data were considered to be statistically significant when the p value was equal to or less than 0.05. The curve of hemolysis induced by wasp mastoparans was generated in SigmaPlot 12.5 software, and the EC50 was calculated according to the equation (Four Parameter Logistic Curve): y = min + (max − min)/(1 + (x/EC50)^−Hillslope). The heat map of hemolytic activity of mastoparan peptide was analysed in R software which is based on the value of log2(EC50).

Assay [2] concerns rat red blood cells (RRBCs). The assay can be described thus: Hemolytic assay on rat red blood cells. Type of assay: cell-based, SD rats. As to conditions: rat red blood cells 5% (v/v) in PBS, 37 °C 1 h, OD 540 nm, 1% Triton X-100 = 100%; for RRBC Hemolysis (hemolysis rate at 320 μg/mL): peptide 320 μg/mL (highest dose), PBS = 0%, mean of three independent experiments; for EC50: peptide 10-320 μg/mL twofold dilutions, four-parameter logistic fit of mean of three independent experiments, '-' = hemolytic activity too low to calculate the EC50, read-out: RRBC EC50 (hemolytic activity). How it is done:
as §1, §2

By EC50 is commonly meant the midpoint of the concentration-response curve. Take `CC[C@H](C)[C@H](NC(=O)[C@H](CC(=O)O)NC(=O)[C@@H](N)Cc1ccccc1)C(=O)N[C@@H](CCSC)C(=O)NCC(=O)N[C@@H](CC(C)C)C(=O)N[C@H](C(=O)N[C@@H](CCCCN)C(=O)N[C@@H](CCCCN)C(=O)N[C@H](C(=O)N[C@@H](C)C(=O)NCC(=O)N[C@@H](C)C(=O)N[C@@H](CC(C)C)C(N)=O)C(C)C)[C@@H](C)CC` [EMP-ER]: in assay [1], the “HRBC Hemolysis (hemolysis rate at 320 μg/mL)” value (“HRBC Hemolysis” for short) is 25%. Also, in assay [2], the “RRBC Hemolysis (hemolysis rate at 320 μg/mL)” value (“RRBC Hemolysis” for short) is 46% and the EC50 was 231 ± 3.7 µM.

For `CC[C@H](C)[C@H](N)C(=O)N[C@@H](CC(N)=O)C(=O)N[C@@H](CC(C)C)C(=O)N[C@@H](CCCCN)C(=O)N[C@@H](C)C(=O)N[C@@H](CC(C)C)C(=O)N[C@@H](C)C(=O)N[C@@H](C)C(=O)N[C@@H](CC(C)C)C(=O)N[C@@H](C)C(=O)N[C@@H](CCCCN)C(=O)N[C@@H](CCCCN)C(=O)N[C@H](C(=O)N[C@@H](CC(C)C)C(N)=O)[C@@H](C)CC` [Mastoparan (L)], in assay [1], the “HRBC Hemolysis” value stood at 100% and the EC50 is 82.9 ± 3.8 µM. For the same molecule, in assay [2], the “RRBC Hemolysis” value came to 41% and the EC50 is 242 ± 2.6 µM.

On to FDLLGLVKKVASAL-NH2 [EpVP2a], for which, in assay [1], the “HRBC Hemolysis” value was 79% and the EC50 is 152 ± 6.3 µM. Moreover, in assay [2], the “RRBC Hemolysis” value stood at 41% and the EC50 is 239 ± 7.6 µM.

On to FDLLGLVKSVVSAL-NH2 [EpVP2b], for which, in assay [1], the “HRBC Hemolysis” value stood at 100% and the EC50 was 34.1 ± 3.5 µM. Also, in assay [2], the “RRBC Hemolysis” value was 100% and the EC50 was 50.6 ± 2.6 µM.

Regarding FDVMGIIKKIASAL-NH2 [EMP-EF], in assay [1], the “HRBC Hemolysis” value was found to be 100% and the 50% effective concentration (EC50) was 125 ± 20.6 µM. Besides, in assay [2], the “RRBC Hemolysis” value amounted to 48% and the EC50 was 216.8 ± 1.6 µM.

On to GRILSFIKGLAEHL-NH2 [EMP-OD], for which the “HRBC Hemolysis” value in assay [1] is recorded as 2%. In assay [2], the “RRBC Hemolysis” value worked out at 49% and the EC50 is 190 ± 32 µM.

IDWKKLLDAAKQIL-NH2 [Polybia-MP I]: in assay [1], the “HRBC Hemolysis” value was found to be 56% and the EC50 was 177 ± 7 µM. The EC50 in assay [1] (listed as Polybia-MPI) is at most 400 µM. Also, in assay [2], the “RRBC Hemolysis” value is listed as 100% and the EC50 was 51.4 ± 2.2 µM.

Regarding IDWLKLGKMVMDVL-NH2 [Polybia-MP III], in assay [1], the “HRBC Hemolysis” value was determined as 79% and the EC50 is 38.5 ± 5.9 µM. In assay [2], the “RRBC Hemolysis” value was determined as 100% and the EC50 was 74.8 ± 10.4 µM.

Consider IDWLKLRVISVIDL-NH2 [Polybia-MP IV], for which, in assay [1], the “HRBC Hemolysis” value was 0% and the EC50 is above 400 µM. Moreover, in assay [2], the “RRBC Hemolysis” value came to 0% and the EC50 was above 400 µM.

For IKWKAILDAVKKVL-NH2 [Mastoparan-A], the “HRBC Hemolysis” value in assay [1] amounted to 7%. In assay [2], the “RRBC Hemolysis” value was 56% and the EC50 was 183 ± 3.4 µM.

As for INLFGFAALVKKFL-NH2 [Mastoparan-T4], in assay [1], the “HRBC Hemolysis” value amounted to 100% and the EC50 is 28.5 ± 2.3 µM. In assay [2], the “RRBC Hemolysis” value came out at 100% and the EC50 was 17.6 ± 2.4 µM.

Regarding INLKAIAALAKKLF-NH2 [Mastoparan AF], in assay [1], the “HRBC Hemolysis” value is 47% and the EC50 was 227 ± 3.1 µM. For the same molecule, in assay [2], the “RRBC Hemolysis” value is recorded as 92% and the EC50 is 107 ± 15.7 µM.

Consider INLKAIAALVKKVL-NH2 [HR1], for which, in assay [1], the “HRBC Hemolysis” value amounted to 56% and the EC50 was 198 ± 8.9 µM. In addition, in assay [2], the “RRBC Hemolysis” value was found to be 39% and the EC50 is 253 ± 13 µM.

Take INLKALAALVKKVL-NH2 [Mastoparan-II]: in assay [1], the “HRBC Hemolysis” value amounted to 78% and the EC50 is 134.6 ± 1.2 µM. Also, in assay [2], the “RRBC Hemolysis” value is recorded as 90% and the EC50 is 147 ± 3.4 µM.

INLKALLAVAKKIL-NH2 [Mastoparan-C]: in assay [1], the “HRBC Hemolysis” value turned out to be 100%. Besides, in assay [2], the “RRBC Hemolysis” value is on record as 100% and the EC50 was 64.4 ± 10.7 µM.

With INLKVFAALVKKFL-NH2 [Mastoparan-T1], in assay [1], the “HRBC Hemolysis” value came out at 100% and the EC50 is 30.8 ± 1.6 µM. Also, in assay [2], the “RRBC Hemolysis” value worked out at 87% and the EC50 was 22.7 ± 7.1 µM.

As to INLKVFAALVKKLL-NH2 [Mastoparan-T2], in assay [1], the “HRBC Hemolysis” value is given as 100% and the EC50 was 11.8 ± 3.1 µM. Also, in assay [2], the “RRBC Hemolysis” value is reported as 100% and the half-maximal effective concentration (EC50) was 21.1 ± 2.4 µM.

In the case of INLLKIAKGIIKSL-NH2 [EMP-AF], in assay [1], the “HRBC Hemolysis” value was determined as 100% and the EC50 was 111 ± 9.8 µM. In assay [2], the “RRBC Hemolysis” value is 100% and the EC50 is 122 ± 13.1 µM.

As for INLRGFAALVKKFL-NH2 [Mastoparan-T3], in assay [1], the “HRBC Hemolysis” value was found to be 100% and the EC50 was 112 ± 8 µM. In assay [2], the “RRBC Hemolysis” value was found to be 100% and the EC50 is 51.6 ± 2.1 µM.

Regarding INMKAVAAVAKKPL-NH2 [MP-VB2], in assay [1], the “HRBC Hemolysis” value is on record as 0%. For the same molecule, the “RRBC Hemolysis” value in assay [2] was determined as 0%.

As to INWAKLGKLALQAL-NH2 [Ropalidia-MP], in assay [1], the “HRBC Hemolysis” value amounted to 100% and the concentration giving a half-maximal response (EC50) was 42.5 ± 1.7 µM. In addition, in assay [2], the “RRBC Hemolysis” value amounted to 94% and the EC50 is 122 ± 4.3 µM.

Take INWHDIAIKNIDAL-NH2 [Polybia-MP V]: in assay [1], the “HRBC Hemolysis” value came out at 0% and the EC50 was above 400 µM. Besides, in assay [2], the “RRBC Hemolysis” value is recorded as 0% and the EC50 is above 400 µM.

As for INWKAIIEAAKQAL-NH2 [Protopolybia-MPII], in assay [1], the “HRBC Hemolysis” value stood at 13% and the EC50 is above 400 µM. Also, in assay [2], the “RRBC Hemolysis” value is listed as 24% and the EC50 was above 400 µM.

As to INWKAILQRIKKML-NH2 [Agelaia-MPII], in assay [1], the “HRBC Hemolysis” value is listed as 100% and the EC50 was 44.8 ± 10.4 µM. Moreover, in assay [2], the “RRBC Hemolysis” value is recorded as 97% and the EC50 is 62.1 ± 3.8 µM.

As for INWKALLDAAKKVL-NH2 [Protonectarina-MP], the “HRBC Hemolysis” value in assay [1] is recorded as 100%. In assay [2], the “RRBC Hemolysis” value is on record as 35% and the EC50 was 326 ± 26.4 µM.

INWKGIAAMAKKLL-NH2 [Mastoparan-X(V)]: in assay [1], the “HRBC Hemolysis” value is recorded as 29%; the EC50 was ≤ 400 µM and 349 µM. In assay [2], the “RRBC Hemolysis” value amounted to 70% and the EC50 was 156 ± 2.4 µM.

INWKKIASIGKEVLKAL-NH2 [PMM2]: in assay [1], the “HRBC Hemolysis” value came out at 100% and the EC50 is 42.6 ± 2.5 µM. Also, in assay [2], the “RRBC Hemolysis” value turned out to be 100% and the EC50 was 80.9 ± 6.4 µM.

For the molecule INWKKIFQKVKNLV-NH2 [PDD-A], in assay [1], the “HRBC Hemolysis” value came out at 30% and the EC50 was 354 ± 44.8 µM. Further, the “RRBC Hemolysis” value in assay [2] is on record as 27%.

In the case of INWKKIKSIIKAAMN-NH2 [Mastoparan-V1], the “HRBC Hemolysis” value in assay [1] was 9%. Further, the “RRBC Hemolysis” value in assay [2] is on record as 16%.
